Measured values as given in BindingDB's records for doi:10.1038/nchembio.65 (University of California San Francisco, 2008).

Test: Inhibition of yeast prion protein Sup35 infection of PSI yeast spheroplast cells

With `O=C1C(I)=CC(=C(c2ccccc2C(=O)O)C2C=C(I)C(=O)C(I)=C2)C=C1I` [TERAIODOPHENOLPHATHALIN] the EC50 was 100 µM.
